In test [1] the target is T1, (h)NET (Homo sapiens, UniProt P23975). The test is described as follows: competition binding with [125I]RTI-55 at (h)NET stably expressed in HEK293 cells. The conditions noted are these: for Ki: read-out: Binding, Ki NET, mean ± standard error of three independent experiments.
A further test deals with T2, (h)SERT (Homo sapiens, UniProt P31645).
T2 construct: expressed in transfected cells; host or cells: HEK293
The test is described as follows: block of [3H]serotonin reuptake in HEK-(h)SERT cells. The class given is cell-based.

Test [2] addresses T3, (h)DAT (Homo sapiens, UniProt Q01959).
T3 construct: expressed in transfected cells
The test is described as follows: competition binding with [125I]RTI-55 at (h)DAT stably expressed in HEK293 cells. Particulars: for Ki: mean ± standard error of three independent experiments.

Test [3] addresses T1, (h)NET. The test is described as follows: block of [3H]norepinephrine reuptake in HEK-(h)NET cells. Particulars: for IC50: read-out: Uptake, IC50 [3H]NE, mean ± standard error of three independent experiments.
Test [4] concerns the target T3, (h)DAT. Kind of test: block of [3H]dopamine reuptake in HEK-(h)DAT cells. It is filed as cell-based. Particulars: for times more potent than bupropion as DA uptake inhibitor: relative to bupropion.
Test [5] deals with rats. Kind of test: cocaine discrimination (2-lever operant), i.p. administration. The conditions noted are these: Rattus norvegicus, ip.
The test system of test [6] is mice. The test is described as follows: locomotor activity, 8-h time course protocol. The class given is in vivo. Particulars: for locomotor stimulant activity across the 1-h and 8-h protocols, in words: 1-h and 8-h tests compared; for Emax / ED50: Mus musculus; for Emax: read-out: Locomotor Activity 8-Hour % Peak Cocaine, percent of cocaine's maximal effect, 30 min period of maximum stimulation; for ED50: read-out: Locomotor Activity 8-Hour ED50; for Locomotor Activity 8-Hour Time, min Period, max: time period of maximum effect; for Locomotor Activity 8-Hour Time, min Period, length: duration of locomotor activity.

Test [7] has as its system rats. The test is described as follows: cocaine discrimination time-course study, oral administration. The conditions noted are these: for ED50: Rattus norvegicus, po, 0.75 h; for generalization to cocaine: p.o.
The test system of test [8] is mice. The test is described as follows: locomotor activity, 1-h observation protocol. It is filed as in vivo. The conditions noted are these: for Emax / ED50: Mus musculus; for Emax: 0.5 h, read-out: Locomotor Activity 1-Hour % Peak Cocaine.
The mark [9] stands for this setting: mean ± standard error of three independent experiments, read-out: Uptake, IC50 [3H]DA.
[10] abbreviates: read-out: % cocaine lever responding.
Setting [11] is: read-out: Full Generalization ED50.
The mark [12] stands for this setting: dose to produce 50% of the compound's maximal effect, 8-h.
[13] abbreviates: dose to produce 50% of the compound's maximal effect, 1-h.
Setting [14] is: [3H]DA, read-out: IC50 for DA uptake inhibition.

Like-named read-outs stand apart in the source and are kept apart here.

T1 sequence (P23975 whole entry): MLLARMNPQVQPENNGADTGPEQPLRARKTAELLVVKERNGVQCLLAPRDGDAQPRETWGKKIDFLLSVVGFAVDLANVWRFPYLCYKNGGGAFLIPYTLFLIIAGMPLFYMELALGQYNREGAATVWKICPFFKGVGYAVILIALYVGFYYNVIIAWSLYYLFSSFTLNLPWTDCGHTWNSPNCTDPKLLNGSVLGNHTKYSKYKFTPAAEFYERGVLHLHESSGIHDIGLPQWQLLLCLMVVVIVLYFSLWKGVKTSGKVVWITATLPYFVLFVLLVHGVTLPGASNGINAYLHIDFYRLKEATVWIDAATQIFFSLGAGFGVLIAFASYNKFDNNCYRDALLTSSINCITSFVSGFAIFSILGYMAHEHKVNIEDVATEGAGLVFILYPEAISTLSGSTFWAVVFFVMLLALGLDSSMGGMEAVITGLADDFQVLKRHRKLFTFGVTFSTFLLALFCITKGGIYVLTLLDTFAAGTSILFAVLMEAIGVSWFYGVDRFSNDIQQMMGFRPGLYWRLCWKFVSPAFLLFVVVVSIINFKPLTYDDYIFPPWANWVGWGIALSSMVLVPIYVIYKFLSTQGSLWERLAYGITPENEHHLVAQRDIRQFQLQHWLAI
T3 sequence (Q01959 whole entry): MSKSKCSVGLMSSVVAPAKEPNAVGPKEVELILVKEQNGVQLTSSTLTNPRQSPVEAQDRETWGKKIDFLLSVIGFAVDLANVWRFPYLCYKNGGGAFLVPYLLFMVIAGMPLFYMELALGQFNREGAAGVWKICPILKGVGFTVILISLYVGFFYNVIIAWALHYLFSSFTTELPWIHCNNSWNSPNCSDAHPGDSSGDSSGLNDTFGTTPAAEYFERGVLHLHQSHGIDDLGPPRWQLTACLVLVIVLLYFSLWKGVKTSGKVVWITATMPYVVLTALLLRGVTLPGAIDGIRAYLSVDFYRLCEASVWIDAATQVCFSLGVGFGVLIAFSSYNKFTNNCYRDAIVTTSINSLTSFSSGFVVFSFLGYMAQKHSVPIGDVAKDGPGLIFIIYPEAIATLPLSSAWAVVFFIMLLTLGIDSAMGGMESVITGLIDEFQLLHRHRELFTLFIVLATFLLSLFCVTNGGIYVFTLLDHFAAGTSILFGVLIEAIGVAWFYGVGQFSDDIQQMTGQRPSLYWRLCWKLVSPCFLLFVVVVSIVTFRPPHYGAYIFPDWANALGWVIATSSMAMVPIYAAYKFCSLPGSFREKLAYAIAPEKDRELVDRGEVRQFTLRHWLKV
T2 sequence (P31645 whole entry): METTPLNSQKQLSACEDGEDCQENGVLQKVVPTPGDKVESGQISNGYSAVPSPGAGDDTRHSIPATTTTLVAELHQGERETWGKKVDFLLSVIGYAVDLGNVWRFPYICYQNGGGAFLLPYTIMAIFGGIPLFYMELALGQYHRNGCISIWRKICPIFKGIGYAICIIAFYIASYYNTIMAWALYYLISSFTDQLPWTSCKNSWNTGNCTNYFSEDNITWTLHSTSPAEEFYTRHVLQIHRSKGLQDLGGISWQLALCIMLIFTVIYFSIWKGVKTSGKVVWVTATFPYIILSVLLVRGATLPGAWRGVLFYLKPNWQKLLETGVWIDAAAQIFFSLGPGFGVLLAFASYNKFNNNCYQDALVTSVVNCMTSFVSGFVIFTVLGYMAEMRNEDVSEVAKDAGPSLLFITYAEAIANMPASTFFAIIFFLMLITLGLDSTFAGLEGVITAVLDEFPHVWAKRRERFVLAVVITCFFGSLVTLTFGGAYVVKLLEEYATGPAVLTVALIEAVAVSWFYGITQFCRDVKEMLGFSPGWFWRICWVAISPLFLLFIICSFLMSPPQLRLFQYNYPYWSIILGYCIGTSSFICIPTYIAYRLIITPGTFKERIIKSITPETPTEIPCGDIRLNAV

For the compound `C[C@@H](NC(C)(C)C)[C@H](O)c1ccccc1` (racemic) [Compound 7, (1RS,2RS)-2-(N-tert-Butylamino)-1-phenyl-1-propanol, reference compound], the “affinity at the NET, in words” value on (h)NET [1] is listed as “loss of affinity”. In addition, the IC50 on (h)SERT ([3H]5HT, read-out: IC50 for 5HT uptake inhibition) amounted to 1240 nM. Moreover, the “affinity at the DAT, in words” value on (h)DAT [2] is reported as “loss of affinity”.
In the case of `CC(NC(C)(C)C)C(=O)c1ccccc1` (centres unmarked) [Compound 2b, 2-(N-tert-Butylamino)propiophenone], the Ki at (h)NET [1] was 5700 nM; at (h)DAT [2], 5730 nM. Besides, the results for the IC50 on (h)NET [3] and on (h)DAT [4] (setting [9]) were 8700 nM and 2310 nM, respectively. The responders at 5 mg/kg in the test with rats [5] (setting [10]) came to 3%. In addition, the responders at 10 mg/kg in the test on rats [5] (setting [10]) was determined as 83%. Moreover, in the test with rats [5] (setting [10]), the responders at 25 mg/kg is 83%. For the same compound, the ED50 with rats [5] (setting [11]) turned out to be 5.65 mg/kg; in the test on mice [6] (setting [12]), 10.5 mg/kg; in the test on rats [7], 25.6 mg/kg; with mice [8] (setting [13]), 8.1 mg/kg. In addition, the “locomotor stimulant activity across the 1-h and 8-h protocols, in words” value in the test with mice [6] is “strong stimulants in both studies”. The values for the Emax in the test with mice [6] and with mice [8] were 98% and 120%, respectively. The “Locomotor Activity 8-Hour Time, min Period, max” value with mice [6] fell in the range of 0 to 30 min.
Regarding `CC(C(=O)c1cccc(Cl)c1)N(C)C` (centres unmarked) [Compound 2dd, 2-(N,N-Dimethylamino)-3′-chloropropiophenone], the Ki at (h)NET [1] came to 3090 nM; at (h)DAT [2] it was 4130 nM. The half-inhibitory concentration (IC50) turned out to be 1260 nM on (h)NET [3] and 1530 nM at (h)DAT [4] (setting [14]). Besides, in the test on rats [5] (setting [10]), the responders at 5 mg/kg was found to be 0%. For the same compound, the responders at 10 mg/kg with rats [5] (setting [10]) worked out at 83%. In the test on rats [5] (setting [10]), the responders at 25 mg/kg was found to be 83%. The responders at 50 mg/kg in the test on rats [5] (setting [10]) amounted to 10%. The ED50 in the test on rats [5] (read-out: ED50 for cocaine generalization) came to 4.84 mg/kg; in the test on rats [5] (setting [11]) it was 4.84 mg/kg; with mice [6] (setting [12]) it was 13.9 mg/kg; in the test on rats [7] it was 5.36 mg/kg; with mice [8] (setting [13]) it was 11 mg/kg. Further, in the test with mice [6], the “locomotor stimulant activity across the 1-h and 8-h protocols, in words” value is on record as “activity similar to cocaine in the 1-h protocol but weakened significantly in the 8-h time-course study”. For the same compound, the values for the Emax with mice [6] and in the test on mice [8] were 52% and 100%, respectively. The “Locomotor Activity 8-Hour Time, min Period, length” value in the test with mice [6] is 180 to 190 min. Besides, the “Locomotor Activity 8-Hour Time, min Period, max” value with mice [6] is 90 to 120 min.
As for `CCCC(NC(C)(C)C)C(=O)c1cccc(Cl)c1` (centres unmarked) [Compound 2p, 2-(N-tert-Butylamino)-3′-chloropentanophenone], the Ki on (h)NET [1] was 1170 nM; on (h)DAT [2], 96 nM. Moreover, the IC50 on (h)NET [3] came out at 472 nM; on (h)DAT [4] (setting [9]), 33 ± 7 nM. Moreover, the “times more potent than bupropion as DA uptake inhibitor” value on (h)DAT [4] stood at 29 times. For the same compound, the responders at 5 mg/kg in the test with rats [5] (setting [10]) came out at 1%. Besides, the responders at 10 mg/kg with rats [5] (setting [10]) worked out at 33%. For the same compound, the responders at 25 mg/kg in the test on rats [5] (setting [10]) amounted to 83%. Further, the ED50 in the test with rats [5] (setting [11]) is 11.9 mg/kg; in the test on mice [6] (setting [12]), 16.3 mg/kg; with rats [7], 22.2 mg/kg; in the test with mice [8] (setting [13]), 17.2 mg/kg. Moreover, the “locomotor stimulant activity across the 1-h and 8-h protocols, in words” value in the test on mice [6] is given as “activity similar to cocaine in the 1-h protocol but weakened significantly in the 8-h time-course study”. For the same compound, the Emax turned out to be 72% in the test with mice [6] and 96% with mice [8]. Also, the “Locomotor Activity 8-Hour Time, min Period, length” value in the test on mice [6] lay within 210 to 480 min. The “Locomotor Activity 8-Hour Time, min Period, max” value with mice [6] is 90 to 120 min. Moreover, the generalization to cocaine entry is “partial generalization” in the test with rats [7] (45 min, 50 mg/kg); “full generalization” in the test on rats [7] (45 min, 100 mg/kg); “full generalization” in the test on rats [7] (90 min, 100 mg/kg); “partial generalization” in the test on rats [7] (180 min, 100 mg/kg).
`CCCCC(NC(C)(C)C)C(=O)c1cccc(Cl)c1` (centres unmarked) [Compound 2q, 2-(N-tert-Butylamino)-3′-chlorohexanophenone]: the inhibitory constant (Ki) worked out at 3190 nM on (h)NET [1] and 350 nM at (h)DAT [2]. Also, the results for the IC50 on (h)NET [3] and at (h)DAT [4] (setting [14]) were 400 nM and 69 nM, respectively. In addition, the “times more potent than bupropion as DA uptake inhibitor” value at (h)DAT [4] came to 14 times. Also, the responders at 5 mg/kg in the test on rats [5] (setting [10]) came out at 1%. For the same compound, the responders at 10 mg/kg in the test with rats [5] (setting [10]) came to 67%. Also, in the test with rats [5] (setting [10]), the responders at 25 mg/kg was 10%. Moreover, the ED50 with rats [5] (setting [11]) came out at 8.17 mg/kg; in the test with mice [6] (setting [12]), 13.1 mg/kg; in the test on rats [7] it was 37.9 mg/kg; with mice [8] (setting [13]), 13.5 mg/kg. Also, the Emax with mice [6] is 110%; in the test with mice [8], 81%. Moreover, the “Locomotor Activity 8-Hour Time, min Period, length” value in the test on mice [6] was 40 to 460 min. Further, the “Locomotor Activity 8-Hour Time, min Period, max” value in the test on mice [6] is 0 to 30 min.
With `CCCCCC(NC(C)(C)C)C(=O)c1cccc(Cl)c1` (centres unmarked) [Compound 2r, 2-(N-tert-Butylamino)-3′-chloroheptanophenone], the Ki on (h)NET [1] was determined as 4300 nM. On (h)NET [3], the IC50 amounted to 2000 nM. For the same compound, the IC50 at (h)DAT [4] (setting [9]) was found to be 1570 nM. In addition, in the test with rats [5] (setting [10]), the responders at 5 mg/kg was found to be 0%, the responders at 10 mg/kg turned out to be 0%, the responders at 25 mg/kg was 34% and the responders at 50 mg/kg was determined as 17%. In the test on mice [6], the “locomotor stimulant activity across the 1-h and 8-h protocols, in words” value is given as “weak stimulants in both tests”; the Emax came out at 78%; the “Locomotor Activity 8-Hour Time, min Period, length” value is 280 to 460 min; the “Locomotor Activity 8-Hour Time, min Period, max” value lay in the range of 60 to 90 min. Moreover, the median effective dose (ED50) in the test with mice [6] (setting [12]) amounted to 13.4 mg/kg. Besides, the Emax in the test with mice [8] turned out to be 66%. The compound further returned an ED50 in the test on mice [8] (setting [13]) of 5.82 mg/kg. Further, at (h)DAT [2], the Ki turned out to be 709 nM.
As to `CCCCCCC(NC(C)(C)C)C(=O)c1cccc(Cl)c1` (centres unmarked) [Compound 2s, 2-(N-tert-Butylamino)-3′-chlorooctanophenone], the Ki on (h)NET [1] turned out to be 2580 nM. For the same compound, on (h)NET [3], the IC50 is 4890 nM. In addition, the IC50 on (h)DAT [4] (setting [14]) came to 135 nM. In the test with rats [5] (setting [10]), the responders at 5 mg/kg is 0%, the responders at 10 mg/kg turned out to be 0%, the responders at 25 mg/kg turned out to be 49% and the responders at 50 mg/kg stood at 50%. The responders at 100 mg/kg with rats [5] (setting [10]) is 67%. In addition, in the test on mice [6], the “locomotor stimulant activity across the 1-h and 8-h protocols, in words” value is on record as “weak stimulants in both tests”; the Emax turned out to be 60%; the “Locomotor Activity 8-Hour Time, min Period, length” value is 130 to 140 min; the “Locomotor Activity 8-Hour Time, min Period, max” value was in the range of 110 to 140 min. In the test with mice [6] (setting [12]), the ED50 stood at 9 mg/kg. The median effective dose (ED50) with rats [7] is 37.9 mg/kg. Besides, in the test with mice [8], the Emax came to 61%. In the test on mice [8] (setting [13]), this compound had an ED50 of 33.3 mg/kg. On (h)DAT [2], the affinity, expressed as Ki, was 510 nM.
`CCCNC(C)C(=O)c1cccc(Cl)c1` (centres unmarked) [Compound 2v, 2-(N-Propylamino)-3′-chloropropiophenone]: the “5HT uptake inhibition, in words” value on (h)SERT is “inactive”. Further, at (h)NET [3], the “NE uptake inhibition, in words” value was “inactive”. In addition, the “DA uptake inhibition, in words” value at (h)DAT [4] was “inactive”. Also, in the test on mice [6] (setting [12]), the “Locomotor Activity 8-Hour ED50” value is listed as “NE^f”. In addition, the “Locomotor Activity 1-Hour ED50” value with mice [8] (setting [13]) is on record as “NE^f”.

The record behind these values is patent publication US10919841B2, “Monoamine reuptake inhibitors” (Research Triangle Institute, priority 2009, dated 2021).
